Assay results: PubChem BioAssay (NCI)
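Tested at 5 concentrations; 48 h exposure; 96-well plates; endpoints linearly interpolated, else capped at highest concentration. TGI denotes the concentration required for complete inhibition of growth.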

How the values were obtained:
Test in all cases: DTP human tumour cell line panel, 48 h
[1] = test system: MCF7 breast
[2] = test system: A549 NSCLC
[3] = test system: COLO 205 colon
[4] = test system: OVCAR-8 ovarian
[5] = test system: HOP-62 NSCLC
[6] = test system: NCI-H460 lung
[7] = test system: OVCAR-3 ovarian
[8] = test system: SN12C renal
[9] = test system: NCI-H23 lung
[10] = test system: OVCAR-4 ovarian
[11] = test system: HOP-92 NSCLC
[12] = test system: SF-295 CNS
[13] = test system: M14 melanoma
[14] = test system: A498 renal
[15] = test system: OVCAR-5 ovarian
[16] = test system: K-562 leukemia
[17] = test system: SK-MEL-5 melanoma
[18] = test system: LOX IMVI melanoma
[19] = test system: UACC-62 melanoma
[20] = test system: HCT-15 colon
[21] = test system: SK-MEL-28 melanoma
[22] = test system: KM12 colon
[23] = test system: SK-MEL-2 melanoma
[24] = test system: SR leukemia
[25] = test system: NCI-H226 lung
[26] = test system: UACC-257 melanoma
[27] = test system: T-47D breast
[28] = test system: HCT-116 colon
[29] = test system: HCC-2998 colon
[30] = test system: UO-31 renal
[31] = test system: MDA-N
[32] = test system: HS 578T breast
[33] = test system: BT-549 breast
[34] = test system: SNB-19 CNS
[35] = test system: HT29 colon
[36] = test system: CAKI-1 renal
[37] = test system: MOLT-4 leukemia
[38] = test system: NCI-H522 lung
[39] = test system: MDA-MB-435
[40] = test system: SNB-75 CNS
[41] = test system: NCI/ADR-RES ovarian
[42] = test system: PC-3 prostate
[43] = test system: MDA-MB-231 breast
[44] = test system: SF-539 CNS
[45] = test system: DU-145 prostate
[46] = test system: SF-268 CNS
[47] = test system: TK-10 renal
[48] = test system: MALME-3M melanoma
[49] = test system: RXF 393 renal
[50] = test system: CCRF-CEM leukemia
[51] = test system: EKVX NSCLC
[52] = test system: ACHN renal
[53] = test system: IGROV1 ovarian
[54] = test system: 786-0 renal
[55] = test system: HL-60(TB) leukemia
[56] = test system: U251 CNS
[57] = test system: SW-620 colon
[58] = test system: SK-OV-3 ovarian
[59] = test system: RPMI-8226 leukemia
[60] = test system: DMS 114 small cell lung
[61] = test system: M19-MEL melanoma
[62] = test system: DMS 273 small cell lung
[63] = test system: SNB-78 CNS
[64] = test system: KM20L2 colon
[65] = test system: RXF-631 renal
[66] = test system: HOP-18 NSCLC
[67] = test system: XF 498 CNS
[68] = test system: DLD-1 colon
[69] = test system: LXFL 529 NSCLC

`CS(=O)(=O)OC1CCN(C2(c3cccc(O)c3)CCCCC2)CC1` was tested, and the TGI [1] was > 100 µM, the TGI [2] was > 100 µM and the TGI [3] was > 100 µM. For the same compound, the TGI [4] was > 100 µM, the TGI [5] was > 100 µM and the TGI [6] was > 100 µM. The TGI [7] was > 100 µM, the TGI [8] was > 100 µM and the TGI [9] was > 100 µM. For the same compound, the TGI [10] was > 100 µM, the TGI [11] was > 100 µM and the TGI [12] was > 100 µM. For the same compound, the TGI [13] was > 100 µM, the TGI [14] was > 100 µM and the TGI [15] was > 100 µM. The TGI [16] was > 100 µM, the TGI [17] was > 100 µM and the TGI [18] was 51.8 µM. For the same compound, the TGI [19] was > 100 µM, the TGI [20] was > 100 µM and the TGI [21] was > 100 µM. The TGI [22] was > 100 µM, the TGI [23] was > 100 µM and the TGI [24] was 49.4 µM. For the same compound, the TGI [25] was > 100 µM, the TGI [26] was > 100 µM and the TGI [27] was > 100 µM. For the same compound, the TGI [28] was > 100 µM, the TGI [29] was 39.7 µM and the TGI [30] was > 100 µM. The TGI [31] was > 100 µM, the TGI [32] was > 100 µM and the TGI [33] was > 100 µM. The TGI [34] was > 100 µM, the TGI [35] was > 100 µM and the TGI [36] was > 100 µM. For the same compound, the TGI [37] was 94.1 µM, the TGI [38] was > 100 µM and the TGI [39] was > 100 µM. The TGI [40] was > 100 µM, the TGI [41] was > 100 µM and the TGI [42] was > 100 µM. For the same compound, the TGI [43] was > 100 µM, the TGI [44] was 89.9 µM and the TGI [45] was > 100 µM. For the same compound, the TGI [46] was > 100 µM, the TGI [47] was > 100 µM and the TGI [48] was > 100 µM. For the same compound, the TGI [49] was > 100 µM, the TGI [50] was 60.5 µM and the TGI [51] was > 100 µM. The TGI [52] was > 100 µM, the TGI [53] was > 100 µM and the TGI [54] was 92.4 µM. For the same compound, the TGI [55] was 38.2 µM, the TGI [56] was > 100 µM and the TGI [57] was > 100 µM. The TGI [58] was > 100 µM and the TGI [59] was 49 µM.

`CC(C)(C)[Si](Nc1ccccc1)(c1ccccc1)c1ccccc1` showed a TGI [2] of 28.2 µM, a TGI [3] of 29.4 µM and a TGI [4] of 34 µM. It also gave a TGI [5] of 31.4 µM, a TGI [6] of 37.7 µM and a TGI [7] of 27.4 µM. For the same compound, the TGI [8] was 28.3 µM, the TGI [9] was 32.8 µM and the TGI [10] was 27.1 µM. For the same compound, the TGI [11] was 28.3 µM, the TGI [12] was 26 µM and the TGI [13] was 27.5 µM. For the same compound, the TGI [60] was 26.3 µM, the TGI [14] was 31.3 µM and the TGI [16] was 25.1 µM. The TGI [61] was 28.4 µM, the TGI [17] was 34.2 µM and the TGI [62] was 27.3 µM. For the same compound, the TGI [63] was 30.4 µM, the TGI [18] was 26.1 µM and the TGI [19] was 22.7 µM. The TGI [20] was 28.4 µM, the TGI [21] was 32 µM and the TGI [22] was 27.4 µM. It also gave a TGI [23] of 35.8 µM, a TGI [25] of 29.8 µM and a TGI [26] of 28.4 µM. For the same compound, the TGI [28] was 20.6 µM, the TGI [64] was 31.7 µM and the TGI [29] was 30.7 µM. It also gave a TGI [30] of 18.5 µM, a TGI [65] of 29.6 µM and a TGI [34] of 27.1 µM. The TGI [35] was 28.7 µM, the TGI [37] was 26.2 µM and the TGI [66] was 26.7 µM. It also gave a TGI [40] of 24.5 µM, a TGI [44] of 25 µM and a TGI [46] of 28 µM. For the same compound, the TGI [47] was 28 µM, the TGI [48] was 41.8 µM and the TGI [49] was 26.5 µM. It also gave a TGI [50] of 39.7 µM, a TGI [51] of 30.3 µM and a TGI [52] of 30.1 µM. It also gave a TGI [53] of 28.3 µM, a TGI [54] of 28.4 µM and a TGI [55] of 31.3 µM. It also gave a TGI [56] of 26.8 µM, a TGI [57] of 33.6 µM and a TGI [58] of 30.9 µM. For the same compound, the TGI [67] was 27.8 µM and the TGI [59] was 44.1 µM.

In the case of `NC(=O)N/N=C1/CCCC/C1=C\c1ccccc1`, the TGI [2] is reported as > 100 µM, the TGI [3] is reported as > 100 µM and the TGI [4] is reported as > 100 µM. The TGI [5] was > 100 µM, the TGI [6] was > 100 µM and the TGI [7] was > 100 µM. For the same compound, the TGI [8] was > 100 µM, the TGI [9] was > 100 µM and the TGI [10] was > 100 µM. For the same compound, the TGI [68] was > 100 µM, the TGI [11] was > 100 µM and the TGI [12] was > 100 µM. For the same compound, the TGI [13] was > 100 µM, the TGI [60] was > 100 µM and the TGI [14] was > 100 µM. For the same compound, the TGI [15] was > 100 µM, the TGI [16] was > 100 µM and the TGI [61] was > 100 µM. For the same compound, the TGI [17] was > 100 µM, the TGI [62] was > 100 µM and the TGI [63] was > 100 µM. The TGI [18] was > 100 µM, the TGI [19] was > 100 µM and the TGI [20] was > 100 µM. The TGI [21] was > 100 µM, the TGI [22] was > 100 µM and the TGI [23] was > 100 µM. For the same compound, the TGI [24] was > 100 µM, the TGI [25] was > 100 µM and the TGI [26] was > 100 µM. For the same compound, the TGI [28] was > 100 µM, the TGI [64] was > 100 µM and the TGI [29] was > 100 µM. The TGI [30] was > 100 µM, the TGI [65] was > 100 µM and the TGI [35] was > 100 µM. For the same compound, the TGI [36] was > 100 µM, the TGI [37] was > 100 µM and the TGI [66] was > 100 µM. The TGI [38] was > 100 µM, the TGI [40] was > 100 µM and the TGI [44] was > 100 µM. For the same compound, the TGI [69] was > 100 µM, the TGI [46] was > 100 µM and the TGI [47] was > 100 µM. The TGI [48] was > 100 µM, the TGI [49] was > 100 µM and the TGI [50] was > 100 µM. The TGI [51] was > 100 µM, the TGI [52] was > 100 µM and the TGI [53] was > 100 µM. For the same compound, the TGI [54] was > 100 µM, the TGI [55] was > 100 µM and the TGI [56] was > 100 µM. The TGI [57] was > 100 µM, the TGI [58] was > 100 µM and the TGI [59] was > 100 µM.
